From US20080300317A1 (Chevron U.S.A. Inc., priority 2007, published 2008) come the findings set out here.

Data set [1] deals with influenza A/HK/8/68 (H3N2). Description: microbe, parasite or virus in culture. The format is cell-based, influenza A virus.
Data set [2] concerns Vero cells. The settings on record: Table 3, MDT compounds, No Tox. = no cytotoxicity measured.
Data set [3] has as its system influenza A/PR/8/34 (H1N1). The data set can be described thus: microbe, parasite or virus in culture. The data set is classed as cell-based, influenza A virus.
The subject of data set [4] is influenza B/GL/1739/54. Description: Anti-viral EC50 experiment, survival of virus-infected Vero cells. The data set is classed as cell-based, influenza B virus. On the procedure:
The following MDT compounds were tested: MDT-1, MDT-3, MDT-10, MDT-11, MDT-12, MDT-13, MDT-14, MDT-15, MDT-16, MDT-22, MDT-23, MDT-24, MDT-26, MDT-27, MDT-28, MDT-29, MDT-30, MDT-31, MDT-32, MDT-33, MDT-34, MDT-40, MDT-41, MDT-42, MDT-43, MDT-44, MDT-45, MDT-46, MDT-47, MDT-48, MDT-49, MDT-50, MDT-51, MDT-53, MDT-56, MDT-57, MDT-58, MDT-59, MDT-60, MDT-61, MDT-62, MDT-63, MDT-65, MDT-67, MDT-68 and MDT-69. […] Amantadine and rimantadine are both adamantane derivatives.
Compound diluents were dimethyl sulfoxide (DMSO), Molecusol ((2-hydroxypropyl)-β-cyclodextrin; Sigma H107), propylene-glycol (PG) and deionized water. Diluents were used singly or in combination as necessary to dissolve the compounds.
The medium used for the cell lines was 1× Minimal Essential Medium (MEM) (Invitrogen) supplemented with 1% L-glutamine, 1% penicillin-streptomycin, 0.125% bovine serum albumin (BSA), and 1 μg/ml of TPCK-trypsin.
The viruses tested were influenza A/PR/8/34 (H1N1), influenza A/WS/33 (H1N1), influenza A/HK/8/68 (H3N2) and influenza B/GL/1739/54 (no H, N subtyping). Cells used were the Vero line of African green monkey, normal kidney cells. All viruses and cells were obtained from The American Type Culture Collection (Rockville, Md.). Cells were grown in an atmosphere of 4-6% CO2 at 34-38° C. in MEM with 5% fetal bovine serum (FBS), 2 mM glutamine, and 1% penicillin-streptomycin solution to maintain exponential growth.
The Vero cells were plated on Day 0. On Day 1, cells were infected with virus and incubated with various concentrations of test compounds. […] On Day 4 the cells were fixed and stained. […] Cell survival due to exposure to test compound was indicative of anti-viral activity.

Data set [5] relates to influenza A/WS/33 (H1N1). The data set can be described thus: microbe, parasite or virus in culture. The data set is classed as cell-based, influenza A virus.
In data set [6] the test system is 3 strains of influenza A virus and one strain of influenza B virus. The format is cell-based. The conditions noted are these: Vero cells; screening at 50, 10, 5 and 1 μM; all four influenza strains.
The mark [7] stands for this setting: Table 3, Vero cells, H3N2, n at least 2, No effic. = no efficacy measured.
Where [8] appears, read: Table 3, Vero cells, H1N1, n at least 2, No effic. = no efficacy measured, read-out: EC50 Virus A/PR/8/34.
Where [9] appears, read: Table 3, Vero cells, n at least 2, No effic. = no efficacy measured.
Setting [10] is: Table 3, Vero cells, H1N1, n at least 2, No effic. = no efficacy measured, read-out: EC50 Virus A/WS/33.
The mark [11] stands for this setting: Table 3, Vero cells, H3N2, n at least 2, No effic. = no efficacy measured, read-out: EC50 Virus A/HK/8/68.
Where [12] appears, read: Table 3, Vero cells, H1N1, n at least 2, No effic. = no efficacy measured.
[13] abbreviates: Influenza A virus, Table 3, Vero cells, H1N1, n at least 2, No effic. = no efficacy measured.

Where a name gives a salt, the structure may show the parent alone. Read-outs that look alike come from different tables or passages of the source. Bounds are passed on as bounds.

Regarding 2-aminotriamantane [MDT-50], in data set [1] (setting [7]), the “EC50 Virus A/HK/8/68” value is reported as “No Effic”. Further, the Cytotoxicity in data set [2] is 10 or above μM. Moreover, the EC50 in data set [3] (setting [8]) is 20 nM; in data set [4] (setting [9]), < 1000 nM; in data set [5] (setting [10]), 370 nM.

On to 3-aminotriamantane [MDT-48], for which the “anti-viral activity under the conditions tested” value (“anti-viral activity” below) in data set [6] is reported as “did not exhibit anti-viral activity”.

Consider 9-aminotriamantane [MDT-49], for which the “anti-viral activity” value in data set [6] is listed as “did not exhibit anti-viral activity”.

On to `NC12CC3CC(CC(C3)C1)C2` [Amantadine, 1-aminoadamantane hydrochloride, reference compound], for which the EC50 in data set [1] (Influenza A virus, H3N2, Vero, Table 4, controls, cutoff control values compiled through many experiments) is ≤ 1000 nM; in data set [3] (Influenza A virus, Vero, Table 4, controls, cutoff control values compiled through many experiments), ≥ 50000 nM; in data set [4] (Influenza B virus, Vero, Table 4, controls, cutoff control values, determined over only 2 experiments), ≥ 20000 nM; in data set [5] (Influenza A virus, H1N1, Vero, Table 4, controls, cutoff control values compiled through many experiments) it was ≥ 10000 nM.

As to `NC12CC3CC4C5CC(CC41)CC2C5C3` [MDT-1, 1-aminodiamantane], the “anti-viral activity” value in data set [6] is given as “did not exhibit anti-viral activity”.

`NC12CC3C4CC5CC3C(C1)C(C5)C4C2` [MDT-3, 4-aminodiamantane]: the EC50 in data set [1] (setting [11]) was < 125 nM. Further, the Cytotoxicity in data set [2] is 10 or above μM. Also, in data set [3] (setting [12]), the “EC50 Virus A/PR/8/34” value is “No Effic”. Besides, the “EC50 Virus B/GL/1739/54” value in data set [4] (setting [9]) is given as “No Effic”. In addition, the “EC50 Virus A/WS/33” value in data set [5] (setting [12]) is recorded as “No Effic”.

Regarding `OC12CC3CC4C5CC(CC41)CC2C5C3` [MDT-10, 1-hydroxydiamantane], the “anti-viral activity” value in data set [6] is given as “did not exhibit anti-viral activity”.

Take `OC12CC3C4CC5CC3C(C1)C(C5)C4C2` [MDT-11, 4-hydroxydiamantane]: the “anti-viral activity” value in data set [6] is given as “did not exhibit anti-viral activity”.

Regarding `OC12CC3CC4C1CC1CC2C(C3)C4(O)C1` [MDT-12, 1,6-dihydroxydiamantane], in data set [6], the “anti-viral activity” value is “did not exhibit anti-viral activity”.

Turning to `OC12CC3CC4C1CC1CC4C(O)(C3)C2C1` [MDT-13, 1,7-dihydroxydiamantane], the “anti-viral activity” value in data set [6] is given as “did not exhibit anti-viral activity”.

Turning to `OC12CC3C4CC5(O)CC3C(C1)C(C5)C4C2` [MDT-14, 4,9-dihydroxydiamantane], the “anti-viral activity” value in data set [6] is “did not exhibit anti-viral activity”.

`OC12CC3C4CC5C6CC7(O)CC5C(C4C1)C(C2)(C7)C36` [MDT-15, 9,15-dihydroxytriamantane]: the “anti-viral activity” value in data set [6] is “did not exhibit anti-viral activity”.

On to `CC12CC3(N)CC4C5CC(CC41)CC2C5C3` [MDT-22, 2-methyl-4-aminodiamantane], for which the “anti-viral activity” value in data set [6] is given as “did not exhibit anti-viral activity”.

Take `CC12CC3CC4C1CC1(N)CC2C(C3)C4(C)C1` [MDT-23, 1,6-dimethyl-4-aminodiamantane]: the “anti-viral activity” value in data set [6] is recorded as “did not exhibit anti-viral activity”.

For the compound `CC12CC3CC4C5CC(N)(CC41)CC2C5C3` [MDT-24, 1-methyl-4-aminodiamantane], in data set [1] (setting [11]), the EC50 is 70 nM. For the same compound, the Cytotoxicity entry in data set [2] is “No Tox”. Moreover, the “EC50 Virus A/PR/8/34” value in data set [3] (setting [12]) is on record as “No Effic”. The “EC50 Virus B/GL/1739/54” value in data set [4] (setting [9]) is on record as “No Effic”. In data set [5] (setting [12]), the “EC50 Virus A/WS/33” value is recorded as “No Effic”.

`O=NC12CC3CC4C5CC(CC41)CC2C5C3` [MDT-26, 1-nitrosodiamantane]: the “EC50 Virus A/HK/8/68” value in data set [1] (setting [7]) is on record as “No Effic”. Moreover, the Cytotoxicity result in data set [2] is given as “No Tox”. For the same compound, the EC50 turned out to be 140 nM in data set [3] (setting [8]) and 800 nM in data set [5] (setting [10]). In addition, the “EC50 Virus B/GL/1739/54” value in data set [4] (setting [9]) was “No Effic”.

Regarding `O=NC12CC3C4CC5CC3C(C1)C(C5)C4C2` [MDT-27, 4-nitrosodiamantane], the “EC50 Virus A/HK/8/68” value in data set [1] (setting [7]) is on record as “No Effic”. Besides, the Cytotoxicity result in data set [2] is listed as “No Tox”. For the same compound, the results for the EC50 in data set [3] (setting [8]) and in data set [5] (setting [10]) were 20 nM and 360 nM, respectively. Besides, the “EC50 Virus B/GL/1739/54” value in data set [4] (setting [9]) is recorded as “No Effic”.

In the case of `CC12CC3(N)CC4C5CC(N)(CC41)CC2C5C3` [MDT-28, 1-methyl-4,9-diaminodiamantane], the “anti-viral activity” value in data set [6] was “did not exhibit anti-viral activity”.

Take `CC12CC3CC4C1CC1(N)CC2C(C3)C4(N)C1` [MDT-29, 1-methyl-4,6-diaminodiamantane]: in data set [6], the “anti-viral activity” value is recorded as “did not exhibit anti-viral activity”.

Take `CC12CC3CC4C5CC(CC41)CC2(N)C5C3` (centres unmarked) [MDT-30, 1-amino-12-methyldiamantane]: in data set [6], the “anti-viral activity” value was “did not exhibit anti-viral activity”.

In the case of `CC12CC3CC4C1CC1(N)CC2C(C3)C4(C)C1` [MDT-33, 1,6-dimethyl-4-aminodiamantane], the “anti-viral activity” value in data set [6] is “did not exhibit anti-viral activity”.

Consider `OC12C3CC4CC5C3CC3C6CC(CC31)CC2(C4)C56` [MDT-40, 2-hydroxytriamantane], for which the “EC50 Virus A/HK/8/68” value in data set [1] (setting [7]) was “No Effic”. Besides, the Cytotoxicity entry in data set [2] was “No Tox”. Also, the EC50 is 1900 nM in data set [3] (setting [8]) and 24900 nM in data set [5] (setting [10]). In addition, the “EC50 Virus B/GL/1739/54” value in data set [4] (setting [9]) is “No Effic”.

For the compound `OC12CC3CC4C1CC1C5CC6CC1C2C(C6)(C3)C54` (centres unmarked) [MDT-41, 3-hydroxytriamantane], in data set [1] (setting [7]), the “EC50 Virus A/HK/8/68” value is “No Effic”. For the same compound, in data set [2], the Cytotoxicity result is recorded as “No Tox”. Further, the values for the EC50 in data set [3] (setting [13]) and in data set [5] (setting [13]) were 610 nM and 5500 nM, respectively. In addition, in data set [4] (setting [9]), the “EC50 Virus B/GL/1739/54” value was “No Effic”.

Turning to `OC12CC3C4CC5C6CC7CC5C(C4C1)C(C7)(C2)C63` [MDT-42, 9-hydroxytriamantane], in data set [1] (setting [7]), the “EC50 Virus A/HK/8/68” value was “No Effic”. The Cytotoxicity result in data set [2] is given as “No Tox”. Besides, the results for the EC50 in data set [3] (setting [13]) and in data set [5] (setting [13]) were 80 nM and 2500 nM, respectively. Further, the “EC50 Virus B/GL/1739/54” value in data set [4] (setting [9]) was “No Effic”.

On to `CC12CC3C4CC5(C)CC3C(C1)C(N)(C5)C4C2` [MDT-51, 4,9-dimethyl-1-aminodiamantane], for which the “anti-viral activity” value in data set [6] is listed as “did not exhibit anti-viral activity”.

As to `CC12CC3C4CC5(C)CC(C(C1)C3(N)C5)C4(N)C2` [MDT-53, 4,9-dimethyl-1,6-diaminodiamantane], in data set [6], the “anti-viral activity” value was “did not exhibit anti-viral activity”.

Regarding `NCC12CC3CC4C5CC(CC41)CC2C5C3` [MDT-56, 1-diamantanemethylamine], the “anti-viral activity” value in data set [6] was “did not exhibit anti-viral activity”.

As to `O=C1C2CC3C4CC5CC3C1C(C5)C4C2` [MDT-59, 3-diamantanone], the “anti-viral activity” value in data set [6] was “did not exhibit anti-viral activity”.

On to `CC12CC3C4CC5CC3C(C1)C(C5)C4C2` [MDT-60, 4-methyldiamantane], for which, in data set [6], the “anti-viral activity” value is reported as “did not exhibit anti-viral activity”.

For the compound `CC12CC3C4CC5(C)CC3C(C1)C(CN)(C5)C4C2` [MDT-63, 4,9-dimethyl-1-diamantanemethyleneamine], in data set [6], the “anti-viral activity” value was “did not exhibit anti-viral activity”.

With `CC12CC3CC4C1CC1(CN)CC2C(C3)C4(C)C1` [MDT-65, 1,6-dimethyl-4-diamantanemethyleneamine], the “anti-viral activity” value in data set [6] is “did not exhibit anti-viral activity”.

In the case of `CC(N)C12CC3(C)CC4C5CC(C)(CC41)CC2C5C3` (centres unmarked) [MDT-67, 4,9-dimethyl-1-diamantane-1′-methyl-methyleneamine], the “anti-viral activity” value in data set [6] is “did not exhibit anti-viral activity”.

On to `CC(N)C12CC3C4CC5CC(C(C1)C3(C)C5)C4(C)C2` (centres unmarked) [MDT-68, 1,6-dimethyl-4-diamantane-4′-methyl-methyleneamine], for which the “anti-viral activity” value in data set [6] is listed as “did not exhibit anti-viral activity”.
